How the values were obtained:
Assay in all cases: KINOMEscan competition binding
Settings in all cases: compound 10.0 µM
PAK3 (human) = PAK3 (human) (UniProt O75914)
MAPK4 (human) = MAPK4 (human) (UniProt P31152)
FGFR3 (human) = FGFR3 (human) (UniProt P22607)
CDC2L2 (human) = CDC2L2 (human) (UniProt Q9UQ88)
ANKK1 (human) = ANKK1 (human) (UniProt Q8NFD2)
BRSK1 (human) = BRSK1 (human) (UniProt Q8TDC3)
NLK (human) = NLK (human) (UniProt Q9UBE8)
EPHB1 (human) = EPHB1 (human) (UniProt P54762)
STK36 (human) = STK36 (human) (UniProt Q9NRP7)
[1] = test system: EGFR (human), P00533 [L858R]
[2] = test system: KIT (human), P10721 [D816H]
[3] = test system: BMX (human), P51813 [V600E]
MAPK11 (human) = MAPK11 (human) (UniProt Q15759)
GRK1 (human) = GRK1 (human) (UniProt Q15835)
MAP2K4 (human) = MAP2K4 (human) (UniProt P45985)
DDR1 (human) = DDR1 (human) (UniProt Q08345)
MKNK2 (human) = MKNK2 (human) (UniProt Q9HBH9)
BMPR1A (human) = BMPR1A (human) (UniProt P36894)
SRPK2 (human) = SRPK2 (human) (UniProt P78362)
MARK1 (human) = MARK1 (human) (UniProt Q9P0L2)
LCK (human) = LCK (human) (UniProt P06239)
CDK4 CCND3 (human) = CDK4 CCND3 (human) (UniProt P11802+P30281)
DSTYK (human) = DSTYK (human) (UniProt Q6XUX3)
MAPK13 (human) = MAPK13 (human) (UniProt O15264)
EIF2AK2 (human) = EIF2AK2 (human) (UniProt P19525)
CDKL2 (human) = CDKL2 (human) (UniProt Q92772)
PAK2 (human) = PAK2 (human) (UniProt Q13177)
STK17B (human) = STK17B (human) (UniProt O94768)
PLK4 (human) = PLK4 (human) (UniProt O00444)
EPHB6 (human) = EPHB6 (human) (UniProt O15197)
SRPK3 (human) = SRPK3 (human) (UniProt Q9UPE1)
MAPK8 (human) = MAPK8 (human) (UniProt P45983)
STK10 (human) = STK10 (human) (UniProt O94804)
MAPK6 (human) = MAPK6 (human) (UniProt Q16659)
LYN (human) = LYN (human) (UniProt P07948)
MAP3K12 (human) = MAP3K12 (human) (UniProt Q12852)
TTK (human) = TTK (human) (UniProt P33981)
IRAK4 (human) = IRAK4 (human) (UniProt Q9NWZ3)
[4] = test system: EGFR (human), P00533 [G719C]
MERTK (human) = MERTK (human) (UniProt Q12866)

Chain of MAPK6 (human) (Q16659 whole entry, looked up): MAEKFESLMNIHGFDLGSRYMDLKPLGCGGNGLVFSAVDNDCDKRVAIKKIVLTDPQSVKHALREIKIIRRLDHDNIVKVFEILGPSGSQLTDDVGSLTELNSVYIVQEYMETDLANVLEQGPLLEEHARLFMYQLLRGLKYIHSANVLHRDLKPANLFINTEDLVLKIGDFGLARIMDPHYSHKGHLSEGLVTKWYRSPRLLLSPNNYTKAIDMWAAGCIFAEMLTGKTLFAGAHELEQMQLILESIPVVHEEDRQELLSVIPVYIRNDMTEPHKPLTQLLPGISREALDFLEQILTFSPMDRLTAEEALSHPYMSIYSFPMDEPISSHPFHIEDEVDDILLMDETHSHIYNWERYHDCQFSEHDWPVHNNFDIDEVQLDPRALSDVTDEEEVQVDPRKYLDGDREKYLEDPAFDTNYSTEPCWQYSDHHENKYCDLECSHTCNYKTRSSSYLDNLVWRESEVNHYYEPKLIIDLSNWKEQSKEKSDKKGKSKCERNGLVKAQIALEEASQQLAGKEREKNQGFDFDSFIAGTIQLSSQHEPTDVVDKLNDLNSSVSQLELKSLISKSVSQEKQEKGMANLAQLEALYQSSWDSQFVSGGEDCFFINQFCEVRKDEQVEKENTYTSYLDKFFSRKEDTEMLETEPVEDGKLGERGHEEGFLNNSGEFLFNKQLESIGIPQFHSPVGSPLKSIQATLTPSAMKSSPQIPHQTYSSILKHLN
Chain of MAPK13 (human) (O15264 whole entry, looked up): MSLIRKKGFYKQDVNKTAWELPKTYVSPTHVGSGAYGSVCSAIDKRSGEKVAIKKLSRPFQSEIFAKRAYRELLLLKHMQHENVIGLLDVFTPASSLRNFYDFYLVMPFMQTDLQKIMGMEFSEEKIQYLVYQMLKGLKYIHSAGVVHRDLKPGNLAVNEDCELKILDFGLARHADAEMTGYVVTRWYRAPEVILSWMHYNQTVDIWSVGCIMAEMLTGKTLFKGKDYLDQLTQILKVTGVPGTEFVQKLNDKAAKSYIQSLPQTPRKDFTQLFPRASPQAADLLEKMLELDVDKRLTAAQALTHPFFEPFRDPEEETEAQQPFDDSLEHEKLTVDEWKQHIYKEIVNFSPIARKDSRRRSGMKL
Chain of MKNK2 (human) (Q9HBH9 whole entry, looked up): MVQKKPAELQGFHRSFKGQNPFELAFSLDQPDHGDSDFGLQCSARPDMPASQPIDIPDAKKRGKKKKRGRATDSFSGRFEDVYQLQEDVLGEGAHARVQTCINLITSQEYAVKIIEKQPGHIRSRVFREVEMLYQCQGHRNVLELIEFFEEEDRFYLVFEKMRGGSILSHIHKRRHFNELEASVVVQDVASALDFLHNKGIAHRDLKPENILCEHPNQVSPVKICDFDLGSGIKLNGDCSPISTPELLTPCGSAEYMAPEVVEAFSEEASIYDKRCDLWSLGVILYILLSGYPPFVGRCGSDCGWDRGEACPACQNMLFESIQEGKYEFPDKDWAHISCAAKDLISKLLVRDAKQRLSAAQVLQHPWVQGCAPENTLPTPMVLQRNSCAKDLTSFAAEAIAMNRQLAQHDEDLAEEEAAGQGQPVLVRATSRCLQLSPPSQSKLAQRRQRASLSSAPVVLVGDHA
Chain of EIF2AK2 (human) (P19525 whole entry, looked up): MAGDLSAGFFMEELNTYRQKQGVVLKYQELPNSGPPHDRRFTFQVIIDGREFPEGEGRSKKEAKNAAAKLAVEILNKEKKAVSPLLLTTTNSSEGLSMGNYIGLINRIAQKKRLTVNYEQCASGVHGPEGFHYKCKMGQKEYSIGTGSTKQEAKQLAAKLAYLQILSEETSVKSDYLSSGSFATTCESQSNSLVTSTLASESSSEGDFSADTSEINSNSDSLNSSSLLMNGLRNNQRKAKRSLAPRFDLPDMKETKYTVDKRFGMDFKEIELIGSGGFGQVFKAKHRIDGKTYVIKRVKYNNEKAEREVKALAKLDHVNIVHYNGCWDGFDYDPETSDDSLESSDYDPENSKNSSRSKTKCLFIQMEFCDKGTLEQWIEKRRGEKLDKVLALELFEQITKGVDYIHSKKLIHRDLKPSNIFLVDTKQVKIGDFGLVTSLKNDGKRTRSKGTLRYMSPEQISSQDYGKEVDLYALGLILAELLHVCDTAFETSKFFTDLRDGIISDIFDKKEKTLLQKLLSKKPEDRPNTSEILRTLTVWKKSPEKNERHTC
Chain of NLK (human) (Q9UBE8 whole entry, looked up): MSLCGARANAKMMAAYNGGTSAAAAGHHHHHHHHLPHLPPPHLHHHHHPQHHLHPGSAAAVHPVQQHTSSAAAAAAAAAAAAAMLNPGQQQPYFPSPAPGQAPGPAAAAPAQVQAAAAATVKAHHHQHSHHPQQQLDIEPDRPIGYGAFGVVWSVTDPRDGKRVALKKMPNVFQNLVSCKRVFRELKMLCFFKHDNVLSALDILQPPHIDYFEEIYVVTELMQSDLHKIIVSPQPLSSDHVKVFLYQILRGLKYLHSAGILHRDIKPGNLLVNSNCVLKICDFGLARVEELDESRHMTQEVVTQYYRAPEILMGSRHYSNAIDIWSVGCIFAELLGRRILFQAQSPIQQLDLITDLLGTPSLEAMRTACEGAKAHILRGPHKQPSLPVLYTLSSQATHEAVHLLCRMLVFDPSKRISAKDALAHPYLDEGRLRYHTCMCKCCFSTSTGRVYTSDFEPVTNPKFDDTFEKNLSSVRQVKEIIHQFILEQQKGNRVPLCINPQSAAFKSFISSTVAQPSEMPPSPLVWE
Chain of ANKK1 (human) (Q8NFD2 whole entry, looked up): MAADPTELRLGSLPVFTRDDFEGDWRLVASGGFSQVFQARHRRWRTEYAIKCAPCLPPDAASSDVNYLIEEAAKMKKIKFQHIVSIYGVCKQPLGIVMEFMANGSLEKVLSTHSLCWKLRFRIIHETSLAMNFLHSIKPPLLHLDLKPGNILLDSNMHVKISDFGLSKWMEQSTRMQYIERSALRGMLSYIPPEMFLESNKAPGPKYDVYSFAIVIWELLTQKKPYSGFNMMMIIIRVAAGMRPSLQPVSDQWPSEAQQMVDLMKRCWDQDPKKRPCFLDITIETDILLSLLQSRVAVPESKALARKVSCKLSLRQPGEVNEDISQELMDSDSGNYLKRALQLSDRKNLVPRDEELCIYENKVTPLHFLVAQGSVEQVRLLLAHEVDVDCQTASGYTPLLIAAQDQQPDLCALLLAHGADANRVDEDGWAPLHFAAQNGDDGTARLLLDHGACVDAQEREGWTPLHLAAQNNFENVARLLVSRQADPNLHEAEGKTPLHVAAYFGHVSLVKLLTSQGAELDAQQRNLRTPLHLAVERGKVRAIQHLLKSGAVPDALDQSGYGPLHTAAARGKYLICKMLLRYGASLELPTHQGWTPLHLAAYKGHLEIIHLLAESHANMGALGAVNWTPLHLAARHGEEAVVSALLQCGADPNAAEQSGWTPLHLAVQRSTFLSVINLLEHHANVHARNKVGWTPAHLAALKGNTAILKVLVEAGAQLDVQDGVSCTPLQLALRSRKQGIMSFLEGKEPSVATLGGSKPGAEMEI
Chain of PAK2 (human) (Q13177 whole entry, looked up): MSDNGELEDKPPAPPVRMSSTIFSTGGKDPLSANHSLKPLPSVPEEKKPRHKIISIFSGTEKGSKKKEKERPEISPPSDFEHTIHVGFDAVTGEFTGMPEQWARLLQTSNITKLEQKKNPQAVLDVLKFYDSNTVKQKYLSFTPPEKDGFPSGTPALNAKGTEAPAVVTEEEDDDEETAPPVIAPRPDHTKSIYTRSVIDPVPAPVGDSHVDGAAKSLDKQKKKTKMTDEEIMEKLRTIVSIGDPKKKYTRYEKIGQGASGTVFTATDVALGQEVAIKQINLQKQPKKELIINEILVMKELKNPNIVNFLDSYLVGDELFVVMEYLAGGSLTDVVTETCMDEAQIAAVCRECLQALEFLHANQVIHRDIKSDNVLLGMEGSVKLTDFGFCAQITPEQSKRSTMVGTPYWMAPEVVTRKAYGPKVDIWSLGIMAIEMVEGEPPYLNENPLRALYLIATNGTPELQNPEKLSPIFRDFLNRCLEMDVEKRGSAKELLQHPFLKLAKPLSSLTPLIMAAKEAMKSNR
Chain of MAP3K12 (human) (Q12852 whole entry, looked up): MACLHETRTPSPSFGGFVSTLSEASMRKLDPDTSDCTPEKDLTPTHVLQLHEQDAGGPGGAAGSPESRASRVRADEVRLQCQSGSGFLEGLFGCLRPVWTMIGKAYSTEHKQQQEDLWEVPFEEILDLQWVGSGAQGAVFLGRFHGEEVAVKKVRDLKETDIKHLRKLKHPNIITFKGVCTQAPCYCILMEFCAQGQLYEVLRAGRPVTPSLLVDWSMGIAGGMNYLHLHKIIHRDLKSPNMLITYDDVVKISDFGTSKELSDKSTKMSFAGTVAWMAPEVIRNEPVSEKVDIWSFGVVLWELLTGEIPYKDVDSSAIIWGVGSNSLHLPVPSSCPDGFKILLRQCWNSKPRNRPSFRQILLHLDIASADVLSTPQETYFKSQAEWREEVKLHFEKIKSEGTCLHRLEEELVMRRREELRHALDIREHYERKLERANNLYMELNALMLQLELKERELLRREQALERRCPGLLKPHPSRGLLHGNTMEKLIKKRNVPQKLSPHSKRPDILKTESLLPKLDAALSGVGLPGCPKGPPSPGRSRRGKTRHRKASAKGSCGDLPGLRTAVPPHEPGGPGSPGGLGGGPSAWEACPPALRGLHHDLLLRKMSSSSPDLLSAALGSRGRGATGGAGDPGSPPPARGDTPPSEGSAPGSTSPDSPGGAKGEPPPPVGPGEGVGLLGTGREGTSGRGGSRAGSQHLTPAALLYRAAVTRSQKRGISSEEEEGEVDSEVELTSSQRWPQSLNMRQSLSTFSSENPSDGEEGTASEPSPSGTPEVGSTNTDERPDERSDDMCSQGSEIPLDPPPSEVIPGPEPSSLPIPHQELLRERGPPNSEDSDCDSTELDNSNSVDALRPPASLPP

Q: What does the source list for `CCCS(=O)(=O)Nc1ccc(F)c(C(=O)c2c[nH]c3ncc(Cl)cc23)c1F`?
A: kinase still bound, per cent of control (PAK3 (human)): 34%; kinase still bound, per cent of control (MAPK4 (human)): 100%; kinase still bound, per cent of control (FGFR3 (human)): 71%; kinase still bound, per cent of control (CDC2L2 (human)): 95%; kinase still bound, per cent of control (ANKK1 (human)): 98%; kinase still bound, per cent of control (BRSK1 (human)): 55%; kinase still bound, per cent of control (NLK (human)): 100%; kinase still bound, per cent of control (EPHB1 (human)): 100%; kinase still bound, per cent of control (STK36 (human)): 18%; kinase still bound, per cent of control [1]: 72%; kinase still bound, per cent of control [2]: 93%; kinase still bound, per cent of control [3]: 0%; kinase still bound, per cent of control (MAPK11 (human)): 100%; kinase still bound, per cent of control (GRK1 (human)): 100%; kinase still bound, per cent of control (MAP2K4 (human)): 6.6%; kinase still bound, per cent of control (DDR1 (human)): 1.6%; kinase still bound, per cent of control (MKNK2 (human)): 84%; kinase still bound, per cent of control (BMPR1A (human)): 13%; kinase still bound, per cent of control (SRPK2 (human)): 100%; kinase still bound, per cent of control (MARK1 (human)): 74%; kinase still bound, per cent of control (LCK (human)): 3.2%; kinase still bound, per cent of control (CDK4 CCND3 (human)): 70%; kinase still bound, per cent of control (DSTYK (human)): 54%; kinase still bound, per cent of control (MAPK13 (human)): 85%; kinase still bound, per cent of control (EIF2AK2 (human)): 74%; kinase still bound, per cent of control (CDKL2 (human)): 49%; kinase still bound, per cent of control (PAK2 (human)): 37%; kinase still bound, per cent of control (STK17B (human)): 68%; kinase still bound, per cent of control (PLK4 (human)): 27%; kinase still bound, per cent of control (EPHB6 (human)): 3.6%; kinase still bound, per cent of control (SRPK3 (human)): 100%; kinase still bound, per cent of control (MAPK8 (human)): 96%; kinase still bound, per cent of control (STK10 (human)): 68%; kinase still bound, per cent of control (MAPK6 (human)): 100%; kinase still bound, per cent of control (LYN (human)): 24%; kinase still bound, per cent of control (MAP3K12 (human)): 52%; kinase still bound, per cent of control (TTK (human)): 60%; kinase still bound, per cent of control (IRAK4 (human)): 86%; kinase still bound, per cent of control [4]: 50%; kinase still bound, per cent of control (MERTK (human)): 94%

Q: Which kinase still bound, per cent of control (PAK3 (human)) does the source give for `COc1cc2c(Nc3ccc(NC(=O)c4ccccc4)cc3)ncnc2cc1OCCCN1CCOCC1` here?
A: 87%

Q: And the kinase still bound, per cent of control (MAPK4 (human))?
A: 100%

Q: What about the kinase still bound, per cent of control (FGFR3 (human)) of the same molecule?
A: 67%

Q: What about the kinase still bound, per cent of control (CDC2L2 (human)) of the same molecule?
A: 6.9%

Q: And the kinase still bound, per cent of control (ANKK1 (human))?
A: 17%

Q: And the kinase still bound, per cent of control (BRSK1 (human))?
A: 79%

Q: And the kinase still bound, per cent of control (NLK (human))?
A: 100%

Q: And the kinase still bound, per cent of control (EPHB1 (human))?
A: 100%

Q: What about the kinase still bound, per cent of control (STK36 (human)) of the same molecule?
A: 98%

Q: And the kinase still bound, per cent of control [1]?
A: 8.8%

Q: And the kinase still bound, per cent of control [2]?
A: 69%

Q: What about the kinase still bound, per cent of control [3] of the same molecule?
A: 100%

Q: And the kinase still bound, per cent of control (MAPK11 (human))?
A: 84%

Q: What about the kinase still bound, per cent of control (GRK1 (human)) of the same molecule?
A: 100%

Q: What about the kinase still bound, per cent of control (MAP2K4 (human)) of the same molecule?
A: 100%

Q: What about the kinase still bound, per cent of control (DDR1 (human)) of the same molecule?
A: 36%

Q: And the kinase still bound, per cent of control (MKNK2 (human))?
A: 4.2%

Q: What about the kinase still bound, per cent of control (BMPR1A (human)) of the same molecule?
A: 37%

Q: What about the kinase still bound, per cent of control (SRPK2 (human)) of the same molecule?
A: 86%

Q: What about the kinase still bound, per cent of control (MARK1 (human)) of the same molecule?
A: 100%

Q: And the kinase still bound, per cent of control (CDK4 CCND3 (human))?
A: 100%

Q: What about the kinase still bound, per cent of control (DSTYK (human)) of the same molecule?
A: 34%

Q: What about the kinase still bound, per cent of control (MAPK13 (human)) of the same molecule?
A: 40%

Q: What about the kinase still bound, per cent of control (EIF2AK2 (human)) of the same molecule?
A: 100%

Q: And the kinase still bound, per cent of control (CDKL2 (human))?
A: 12%

Q: What about the kinase still bound, per cent of control (PAK2 (human)) of the same molecule?
A: 89%

Q: And the kinase still bound, per cent of control (STK17B (human))?
A: 100%

Q: What about the kinase still bound, per cent of control (PLK4 (human)) of the same molecule?
A: 2%

Q: And the kinase still bound, per cent of control (EPHB6 (human))?
A: 2%

Q: And the kinase still bound, per cent of control (SRPK3 (human))?
A: 100%

Q: What about the kinase still bound, per cent of control (MAPK8 (human)) of the same molecule?
A: 67%

Q: And the kinase still bound, per cent of control (STK10 (human))?
A: 0.15%

Q: What about the kinase still bound, per cent of control (MAPK6 (human)) of the same molecule?
A: 100%

Q: What about the kinase still bound, per cent of control (LYN (human)) of the same molecule?
A: 7.2%

Q: What about the kinase still bound, per cent of control (MAP3K12 (human)) of the same molecule?
A: 35%

Q: And the kinase still bound, per cent of control (TTK (human))?
A: 40%

Q: What about the kinase still bound, per cent of control (IRAK4 (human)) of the same molecule?
A: 51%

Q: And the kinase still bound, per cent of control [4]?
A: 0.45%

Q: And the kinase still bound, per cent of control (MERTK (human))?
A: 2.4%

Q: How did the kinase still bound, per cent of control (PAK3 (human)) turn out when `N#C/C(=C1/Nc2ccccc2S1)c1ccnc(NCCc2cccnc2)n1` was run?
A: 100%

Q: And the kinase still bound, per cent of control (MAPK4 (human))?
A: 96%

Q: And the kinase still bound, per cent of control (FGFR3 (human))?
A: 92%

Q: And the kinase still bound, per cent of control (CDC2L2 (human))?
A: 85%

Q: What about the kinase still bound, per cent of control (ANKK1 (human)) of the same molecule?
A: 5.6%

Q: And the kinase still bound, per cent of control (BRSK1 (human))?
A: 85%

Q: And the kinase still bound, per cent of control (NLK (human))?
A: 100%

Q: And the kinase still bound, per cent of control (EPHB1 (human))?
A: 100%

Q: What about the kinase still bound, per cent of control (STK36 (human)) of the same molecule?
A: 100%

Q: And the kinase still bound, per cent of control [2]?
A: 72%

Q: What about the kinase still bound, per cent of control [3] of the same molecule?
A: 6.8%

Q: What about the kinase still bound, per cent of control (MAPK11 (human)) of the same molecule?
A: 85%

Q: And the kinase still bound, per cent of control (GRK1 (human))?
A: 100%

Q: What about the kinase still bound, per cent of control (MAP2K4 (human)) of the same molecule?
A: 1.1%

Q: What about the kinase still bound, per cent of control (DDR1 (human)) of the same molecule?
A: 100%

Q: And the kinase still bound, per cent of control (MKNK2 (human))?
A: 0.5%

Q: And the kinase still bound, per cent of control (BMPR1A (human))?
A: 98%

Q: What about the kinase still bound, per cent of control (SRPK2 (human)) of the same molecule?
A: 86%

Q: And the kinase still bound, per cent of control (MARK1 (human))?
A: 100%

Q: What about the kinase still bound, per cent of control (LCK (human)) of the same molecule?
A: 100%

Q: What about the kinase still bound, per cent of control (CDK4 CCND3 (human)) of the same molecule?
A: 49%

Q: And the kinase still bound, per cent of control (DSTYK (human))?
A: 51%

Q: And the kinase still bound, per cent of control (MAPK13 (human))?
A: 51%

Q: What about the kinase still bound, per cent of control (EIF2AK2 (human)) of the same molecule?
A: 72%

Q: What about the kinase still bound, per cent of control (CDKL2 (human)) of the same molecule?
A: 98%

Q: And the kinase still bound, per cent of control (PAK2 (human))?
A: 34%

Q: What about the kinase still bound, per cent of control (STK17B (human)) of the same molecule?
A: 100%

Q: What about the kinase still bound, per cent of control (PLK4 (human)) of the same molecule?
A: 68%

Q: What about the kinase still bound, per cent of control (EPHB6 (human)) of the same molecule?
A: 3.2%

Q: What about the kinase still bound, per cent of control (SRPK3 (human)) of the same molecule?
A: 23%

Q: What about the kinase still bound, per cent of control (MAPK8 (human)) of the same molecule?
A: 0%

Q: What about the kinase still bound, per cent of control (STK10 (human)) of the same molecule?
A: 100%

Q: And the kinase still bound, per cent of control (MAPK6 (human))?
A: 26%

Q: What about the kinase still bound, per cent of control (LYN (human)) of the same molecule?
A: 100%

Q: What about the kinase still bound, per cent of control (MAP3K12 (human)) of the same molecule?
A: 81%

Q: What about the kinase still bound, per cent of control (TTK (human)) of the same molecule?
A: 62%

Q: What about the kinase still bound, per cent of control (IRAK4 (human)) of the same molecule?
A: 48%

Q: And the kinase still bound, per cent of control (MERTK (human))?
A: 100%
